Data on 28 molecules can be found in US8895585B2, “Nicotinamide derivative or salt thereof” (FUJIFILM Corporation, priority 2010, dated 2014).

Structures are written as SMILES. Like-named read-outs stand apart in the source and are kept apart here.

The target in experiment [1] is T1, glutathione S-transferase (GST)-fused full-length human Syk protein (Homo sapiens, UniProt P43405).
T1 construct: (GST)-fused full-length human Syk protein; GST (glutathione S-transferase); purchased Carna Biosciences
As to the kind of experiment: Syk enzyme assay. The format is biochemical. The note with it: Syk enzyme assay, Test Example 1; read-out: IC50 of Syk-inhibitory activity. Put shortly: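 Baculovirus-expressed enzyme (1.2 ng) was preincubated with compound in HEPES pH 7.0/MgCl2/DTT buffer, 2 min shaking then 13 min at room temperature. Biotin-EDPDYEWPSA-NH2 (0.4 μM final) and ATP (27 μM final) were added for 40 min at room temperature. EDTA stop, streptavidin-XL/PT66-K TR-FRET at 615/665 nm gave IC50.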

Another experiment relates to THP-1 cells. As to the kind of experiment: TNFα generation assay. The format is cell-based, human. Here is the method:
THP-1 cells (2×10^5 cells/ml), which were human monocytoid cells, were cultured in the presence of 10 ng/ml IFN-γ (Roche) for 2 days, so that the cells were induced to differentiate into macrophage-like cells. The differentiation-induced THP-1 cells were recovered, and the cells (1×10^6 cell/ml) were then allowed to react with a predetermined concentration of test compound at room temperature for 30 minutes. On the other hand, 100 μl of human IgG (10 μg/ml, SIGMA-ALDRICH) diluted with PBS was added to a 96-well plate, and it was then incubated at room temperature overnight. Thereafter, the resultant was washed with PBS twice to produce a human IgG-coated plate. Subsequently, a cell solution that contained a compound was inoculated on the human IgG-coated plate (5×10^4 cells/well), and it was then cultured for 7 hours. Thereafter, the cultured solution was recovered, and the amount of TNFα secreted into the culture solution was then measured by the ELISA method (Roche/R & D Systems) or the AlphaLISA method (PerkinElmer).

Where [2] appears, read: Homo sapiens, THP-1, THP-1 cells, Table 22, read-out: IC50 in TNFα generation assay.
The mark [3] stands for this setting: Homo sapiens, THP-1, 7 h, IFN-γ-differentiated THP-1 cells on human IgG-coated plate, cultured 7 hours, read-out: TNFα generation inhibitory activity (IC50).

On to `COc1ncc(Nc2nc(NC3CCCCC3N)c(F)cc2C(N)=O)cc1-n1nccn1` (stereo not shown) [Example 002-155], for which the figures for the IC50 (in experiment [1]; with THP-1 cells (setting [2])) were 10 to 50 nM and 65 to 130 nM, respectively.
For `CC(C)C[C@@H](Nc1nc(Nc2cncc(C3CC3)c2)c(C(N)=O)cc1F)[C@H](C)N` [Example 006-412, 6-(((2S,3R)-2-amino-5-methylhexan-3-yl)amino)-2-((5-cyclopropylpyridin-3-yl)amino)-5-fluoronicotinamide], in that order: below 10 nM and 130 to 200 nM.
The corresponding values for `C[C@H](N)[C@H](Nc1nc(Nc2cncc(C3CC3)c2)c(C(N)=O)cc1F)C1CC1` [Example 006-371, 6-(((1R,2S)-2-amino-1-cyclopropylpropyl)amino)-2-((5-cyclopropylpyridin-3-yl)amino)-5-fluoronicotinamide] are below 10 nM and 65 to 130 nM.
The corresponding values for `C[C@H](N)[C@@H](C)Nc1nc(Nc2cccc(-n3nccn3)c2)c(C(N)=O)cc1F` (racemic) [Example 006-111, 2-((3-(2H-1,2,3-triazol-2-yl)phenyl)amino)-6-(((2R,3S)-3-aminobutan-2-yl)amino)-5-fluoronicotinamide 2-((3-(2H-1,2,3-triazol-2-yl)phenyl)amino)-6-(((2S,3R)-3-aminobutan-2-yl)amino)-5-fluoronicotinamide] are below 10 nM and 65 to 130 nM.
In the case of `COCCOc1ncc(Nc2nc(N[C@@H]3CCCC[C@@H]3N)c(F)cc2C(N)=O)cc1F` [Example 006-552, 6-(((1R,2S)-2-aminocyclohexyl)amino)-5-fluoro-2-((5-fluoro-6-(2-methoxyethoxy)pyridin-3-yl)amino)nicotinamide], the results for the IC50 (in experiment [1]; in the experiment on THP-1 cells (setting [2])) were 10 to 50 nM and 65 to 130 nM, respectively.
With `C[C@H](N)[C@H](Nc1nc(Nc2cncc(-n3cccn3)c2)c(C(N)=O)cc1F)C1CC1` [Example 006-373, 2-((5-(1H-pyrazol-1-yl)pyridin-3-yl)amino)-6-(((1R,2S)-2-amino-1-cyclopropylpropyl)amino)-5-fluoronicotinamide], the IC50 in experiment [1] is below 10 nM; in the experiment with THP-1 cells (setting [2]), below 65 nM.
For `CC(C)C[C@@H](Nc1nc(Nc2ccc3ncccc3c2)c(C(N)=O)cc1F)[C@H](C)N` [Example 006-209, 6-(((2S,3R)-2-amino-5-methylhexan-3-yl)amino)-5-fluoro-2-((quinolin-6-yl)amino)nicotinamide], in that order: below 10 nM and 65 to 130 nM.
The corresponding values for `CC(C)C[C@H](CN)Nc1nc(Nc2cncc(Cl)c2)c(C(N)=O)cc1F` [Example 006-180, (R)-6-((1-amino-4-methylpentan-2-yl)amino)-2-((5-chloropyridin-3-yl)amino)-5-fluoronicotinamide] are below 10 nM and 130 to 200 nM.
The corresponding values for `Cc1cc(Nc2nc(N[C@H](CCCO)[C@H](C)N)c(F)cc2C(N)=O)cnc1C` [Example 044-000] are 10 to 50 nM and 65 to 130 nM.
`COc1nccc(Nc2nc(N[C@@H]3CCCC[C@@H]3N)c(F)cc2C(N)=O)c1F` [Example 006-432, 6-(((1R,2S)-2-aminocyclohexyl)amino)-5-fluoro-2-((3-fluoro-2-methoxypyridin-4-yl)amino)nicotinamide]: the IC50 lay in the range of 10 to 50 nM in experiment [1] and 65 to 130 nM with THP-1 cells (setting [2]).
The corresponding values for `NC(=O)c1cc(F)c(NC2CCCCC2N)nc1Nc1ccnc(N2CCOCC2)c1F` (stereo not shown) [Example 002-165] are 10 to 50 nM and 65 to 130 nM.
Take `NC(=O)c1cc(F)c(N[C@@H]2CCCC[C@@H]2N)nc1Nc1cncc(-n2cccn2)c1` [Example 006-168, 2-((5-(1H-pyrazol-1-yl)pyridin-3-yl)amino)-6-(((1R,2S)-2-aminocyclohexyl)amino)-5-fluoronicotinamide]: the IC50 was below 10 nM in experiment [1] and below 65 nM in the experiment on THP-1 cells (THP-1 cells, Table 22, read-out: IC50 in TNFα generation assay).
Regarding `CCN(CC)CCn1ccc2c(Nc3nc(N[C@@H]4CCCC[C@@H]4N)c(F)cc3C(N)=O)ccnc21` (relative stereo) [Example 4-28, 6-(cis-2-aminocyclohexylamino)-2-((1-(2-(diethylamino)ethyl)-1H-pyrrolo[2,3-b]pyridin-4-yl)amino)-5-fluoronicotinamide], in the experiment with THP-1 cells (setting [3]), the IC50 is at most 200 nM.
Still for that read-out and setting: next, `Cc1nc2cc(Nc3nc(N[C@@H]4CCCC[C@@H]4N)c(F)cc3C(N)=O)ccc2o1` (relative stereo) [Example 6-46, 6-(cis-2-aminocyclohexylamino)-5-fluoro-2-((2-methylbenzo[d]oxazol-5-yl)amino)nicotinamide]: at most 200 nM.
Consider `NCCNc1nc(Nc2cnc3ccccc3c2)c(C(N)=O)cc1F` [Example 8-11, 6-(2-aminoethylamino)-5-fluoro-2-(quinolin-3-ylamino)nicotinamide], for which the IC50 in the experiment on THP-1 cells (Homo sapiens, THP-1, 7 h, read-out: TNFα generation inhibitory activity (IC50)) is at most 200 nM.
Take `Cn1ncc2ccc(Nc3nc(N[C@@H]4CCCC[C@@H]4N)c(F)cc3C(N)=O)cc21` (relative stereo) [Example 6-40, 6-(cis-2-aminocyclohexylamino)-5-fluoro-2-((1-methyl-1H-indazol-6-yl)amino)nicotinamide]: in the experiment on THP-1 cells (setting [3]), the IC50 is at most 200 nM.
On the same count and under the same terms, next, `NC(=O)c1cc(F)c(N[C@@H]2CCCC[C@@H]2N)nc1Nc1ccnc2c1ccn2CC1CC1` (relative stereo) [Example 4-40, 6-(cis-2-aminocyclohexylamino)-2-((1-(cyclopropylmethyl)-1H-pyrrolo[2,3-b]pyridin-4-yl)amino)-5-fluoronicotinamide]: at most 200 nM; `COC[C@H](N)CNc1nc(Nc2ccc3ncccc3c2)c(C(N)=O)cc1F` [Example 14-6, 6-(((2R)-2-amino-3-methoxypropyl)amino)-5-fluoro-2-(quinolin-6-ylamino)nicotinamide]: at most 200 nM; `NC(=O)c1cc(F)c(N[C@@H]2CCCC[C@@H]2N)nc1Nc1ccc(N2CCOCC2)nc1` (relative stereo) [Example 2-20, 6-(cis-2-aminocyclohexylamino)-5-fluoro-2-((6-(morpholin-4-yl)pyridin-3-yl)amino)nicotinamide]: at most 200 nM.
On the same count and under the same terms, next, `NC(=O)c1cc(F)c(N[C@@H]2CCCC[C@@H]2N)nc1Nc1cncc(-c2ccccc2)c1` (relative stereo) [Example 2-1, 6-(cis-2-aminocyclohexylamino)-5-fluoro-2-((5-phenylpyridin-3-yl)amino)nicotinamide]: at most 200 nM.
Turning to `NCCNc1nc(Nc2ccc3ncsc3c2)c(C(N)=O)cc1F` [Example 6-44, 6-(2-aminoethylamino)-2-((benzo[d]thiazol-6-yl)amino)-5-fluoro-nicotinamide], the IC50 in the experiment on THP-1 cells (setting [3]) is at most 200 nM.
In the case of `Cc1cncc(Nc2nc(N[C@@H]3CCCC[C@@H]3N)c(Br)cc2C(N)=O)c1` (relative stereo) [Example 35-7, 6-(cis-2-aminocyclohexylamino)-5-bromo-2-((5-methylpyridin-3-yl)amino)nicotinamide], the IC50 in the experiment with THP-1 cells (setting [3]) is at most 200 nM.
On the same count and under the same terms, next, `NC(=O)c1cc(F)c(N[C@@H]2CCCC[C@@H]2N)nc1Nc1ccc2ncsc2c1` (relative stereo) [Example 6-35, 6-(cis-2-aminocyclohexylamino)-2-((benzo[d]thiazol-6-yl)amino)-5-fluoronicotinamide]: at most 200 nM; `COc1cc(Nc2nc(N[C@@H]3CCCC[C@@H]3N)c(F)cc2C(N)=O)cc(OC)c1` [Example 22-5, 6-((1R,2S)-2-aminocyclohexylamino)-2-(3,5-dimethoxyphenylamino)-5-fluoronicotinamide]: at most 200 nM.
On the same count and under the same terms, next, `COc1cc(Nc2nc(N[C@@H]3CCCC[C@@H]3N)c(F)cc2C(N)=O)cc(OC)c1OC` (relative stereo) [Example 2-7, 6-(cis-2-aminocyclohexylamino)-5-fluoro-2-((3,4,5-trimethoxy-phenyl)amino)nicotinamide]: at most 200 nM; `NC(=O)c1cc(F)c(N[C@@H]2CCCC[C@@H]2N)nc1Nc1ccnc2c1ccn2CCN1CCOCC1` (relative stereo) [Example 4-25, 6-(cis-2-aminocyclohexylamino)-5-fluoro-2-((1-(2-(morpholin-4-yl)ethyl)-1H-pyrrolo[2,3-b]pyridin-4-yl)amino)nicotinamide]: at most 200 nM.
The same measure, in the same setting: next, `NC(=O)c1cc(F)c(N[C@@H]2CCCC[C@@H]2N)nc1Nc1ccc(N2CCOCC2)cc1` (relative stereo) [Example 2-5, 6-(cis-2-aminocyclohexylamino)-5-fluoro-2-((4-(morpholin-4-yl)phenyl)amino)nicotinamide]: at most 200 nM.
As for `CC(C)C[C@H](CN)Nc1nc(Nc2ccc3ncccc3c2)c(C(N)=O)cc1F` [Example 006-117, (R)-6-((1-amino-4-methylpentan-2-yl)amino)-5-fluoro-2-((quinolin-6-yl)amino)nicotinamide], in the experiment with THP-1 cells (setting [2]), the IC50 is below 65 nM.
